“Also recorded” adds a separate entry of the source. {Fluorescein} = fluorescein label (binding site for anti-fluorescein Fab-HRP); {Biotin} = biotin (capture probe anchor)

For data set [1], the system named is 16S rRNA in lysates of uropathogens. Kind of data set: Species specificity of uropathogen probe pairs with the electrochemical sensor array (Example 1). In kind it is binding. The note with it: probe pairs of Table 1.
The next data set deals with bacterial 16S rRNA. In words: Amperometric detection of bacterial 16S rRNA, statements over several targets (Examples 2, 3). The data set is classed as binding. The note with it: previous studies; no gap between hybridization sites. Here is the method: Sensor characterization and surface functional layer preparation. Microfabricated electrochemical sensor arrays with an alkanethiolate self-assembled monolayer (SAM) were obtained from GeneFluidics (Monterey Park, Calif.). SAM integrity was confirmed by cyclic voltammetry (CV) (1) using a 16-channel potentiostat (GeneFluidics). After CV characterization, sensor arrays were washed and dried. Washing steps were carried out by applying a stream of deionized H2O to the sensor surface for approximately 2-3 sec followed by 5 sec of drying under a stream of nitrogen. To functionalize the sensor surface, 2.5 μl of 0.5 U/ml streptavidin (Calbiochem, San Diego, Calif.) in 100 mM phosphate buffered saline, pH 7.4 was added to the alkanethiol activated sensors, incubated for 10 min at room temperature and washed off. Biotinylated capture probes (2.5 μl, 1 μM in GeneFluidics' Probe Diluent) were added to the streptavidin-coated sensors. […]
Amperometric Detection of bacterial 16S rRNA. […] Amperometric current vs. time was measured using a multichannel potentiostat (GeneFluidics). The voltage was fixed at −200 mV (vs. reference), and the electroreduction current was measured at 60 sec after the HRP redox reaction reached steady state. All samples were analyzed in duplicate. […] Positive signals are determined by comparing the signals with the background using paired T test. […]

For the substance “UNI: Universal Bacterial probe pair: capture 797 (27 mer) SEQ ID NO: 13, detector 766 (31 mer) SEQ ID NO: 14 (DNA 1 CATCGTTTACGGCGTGGACTACCAGGG; DNA 2 TATCTAATCCTGTTTGCTCCCCACGCTTTCG; DNA 1: DNA, 5' {Biotin}, backbone and methylation of C not given here; DNA 2: DNA, 5' {Fluorescein}, backbone and methylation of C not given here)”, in data set [1], the Species detected result is “Cf, Ea, Ec, Ef, El, Eo, Ko, Kp,; also recorded: Mm, Pa, Pm, Ss, Sa” and the Species not detected entry was “None”. Besides, the “higher signals than the species-specific probes with 6 bp gap” value in the data set on bacterial 16S rRNA is reported as 1.5-4 fold.

These data come from US7763426B2, “Probes and methods for detection of Escheridia coli and antibiotic resistance” (priority 2004, dated 2010).
